Measured values published in ChEMBL document CHEMBL1144434, “Structure-activity relationships within a series of caspase inhibitors. Part 2: Heterocyclic warheads” (Bioorg Med Chem Lett, 2005).

Each compound was assayed against T1, Caspase-6 (Homo sapiens) (UniProt P55212) (assay: Reversible inhibition against Caspase-6). Settings: not given.
T1 sequence (whole entry): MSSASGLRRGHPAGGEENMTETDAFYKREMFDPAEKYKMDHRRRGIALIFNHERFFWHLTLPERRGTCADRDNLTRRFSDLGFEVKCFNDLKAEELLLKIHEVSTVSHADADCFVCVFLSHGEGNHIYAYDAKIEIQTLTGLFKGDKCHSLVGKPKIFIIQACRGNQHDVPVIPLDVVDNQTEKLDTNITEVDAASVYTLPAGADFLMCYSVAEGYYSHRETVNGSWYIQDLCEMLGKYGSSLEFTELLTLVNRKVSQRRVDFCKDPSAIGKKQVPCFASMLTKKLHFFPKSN

SMILES | k3/ki
CCOC(=O)c1c(C)noc1OCC(=O)[C@H](CC(=O)O)NC(=O)[C@@H](NC(=O)COc1cccc2ccccc12)C(C)C | 0 1/m/s

These compounds were tested against Caspase-8 (Homo sapiens) (UniProt Q14790) (assay: Binding affinity against Caspase-8). Settings: not given.
Sequence of Caspase-8 (Homo sapiens) (Q14790 217-374 limits assumed): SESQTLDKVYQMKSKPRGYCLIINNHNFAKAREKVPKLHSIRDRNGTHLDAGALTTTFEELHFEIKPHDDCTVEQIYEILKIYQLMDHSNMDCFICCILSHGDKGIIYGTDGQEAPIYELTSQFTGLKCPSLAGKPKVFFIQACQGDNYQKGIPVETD
Sequence of Caspase-8 (Homo sapiens) (Q14790 385-479 limits assumed): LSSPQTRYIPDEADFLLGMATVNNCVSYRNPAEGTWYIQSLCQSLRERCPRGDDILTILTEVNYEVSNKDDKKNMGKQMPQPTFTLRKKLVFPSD

SMILES | k3/ki
CC(C)[C@H](NC(=O)COc1cccc2ccccc12)C(=O)N[C@@H](CC(=O)O)C(=O)COc1nncc(Cl)c1Cl | 0 1/m/s
CC(C)[C@H](NC(=O)COc1cccc2ccccc12)C(=O)N[C@@H](CC(=O)O)C(=O)COc1cncc2ccccc12 | 0 1/m/s
CC(C)[C@H](NC(=O)COc1cccc2ccccc12)C(=O)N[C@@H](CC(=O)O)C(=O)CSc1nc(-c2ccccc2)c(-c2ccccc2)o1 | 218 1/m/s
CCOC(=O)c1c(C)noc1OCC(=O)[C@H](CC(=O)O)NC(=O)[C@@H](NC(=O)COc1cccc2ccccc12)C(C)C | 1140 1/m/s

More lines, now with the values ahead:

k3/ki | SMILES
212 1/m/s | CC(C)[C@H](NC(=O)COc1cccc2ccccc12)C(=O)N[C@@H](CC(=O)O)C(=O)CSc1nccn1C
276 1/m/s | CC(C)[C@H](NC(=O)COc1cccc2ccccc12)C(=O)N[C@@H](CC(=O)O)C(=O)CSc1nnc(-c2ccccc2)o1

Each compound was assayed on Jurkat (assay: Inhibitory concentration for cellular activity in jurkat assay). Settings: Homo sapiens.
Type: functional, cell-based

SMILES | IC50 [µM]
CC(C)[C@H](NC(=O)COc1cccc2ccccc12)C(=O)N[C@@H](CC(=O)O)C(=O)COc1nncc(Cl)c1Cl | > 200
CC(C)[C@H](NC(=O)COc1cccc2ccccc12)C(=O)N[C@@H](CC(=O)O)C(=O)COc1cncc2ccccc12 | 166
CC(C)[C@H](NC(=O)COc1cccc2ccccc12)C(=O)N[C@@H](CC(=O)O)C(=O)CSc1nc(-c2ccccc2)c(-c2ccccc2)o1 | > 200
CCOC(=O)c1c(C)noc1OCC(=O)[C@H](CC(=O)O)NC(=O)[C@@H](NC(=O)COc1cccc2ccccc12)C(C)C | > 200

Other lines, results leading:

IC50 [µM] | SMILES
> 200 | CC(C)[C@H](NC(=O)COc1cccc2ccccc12)C(=O)N[C@@H](CC(=O)O)C(=O)CSc1nccn1C
150 | CC(C)[C@H](NC(=O)COc1cccc2ccccc12)C(=O)N[C@@H](CC(=O)O)C(=O)CSc1nnc(-c2ccccc2)o1

What follows are compounds tested against T2, Caspase-1 (Mus musculus) (UniProt P29452) (assay: Binding affinity against mouse Caspase-1). Settings: not given.
T2 sequence (whole entry): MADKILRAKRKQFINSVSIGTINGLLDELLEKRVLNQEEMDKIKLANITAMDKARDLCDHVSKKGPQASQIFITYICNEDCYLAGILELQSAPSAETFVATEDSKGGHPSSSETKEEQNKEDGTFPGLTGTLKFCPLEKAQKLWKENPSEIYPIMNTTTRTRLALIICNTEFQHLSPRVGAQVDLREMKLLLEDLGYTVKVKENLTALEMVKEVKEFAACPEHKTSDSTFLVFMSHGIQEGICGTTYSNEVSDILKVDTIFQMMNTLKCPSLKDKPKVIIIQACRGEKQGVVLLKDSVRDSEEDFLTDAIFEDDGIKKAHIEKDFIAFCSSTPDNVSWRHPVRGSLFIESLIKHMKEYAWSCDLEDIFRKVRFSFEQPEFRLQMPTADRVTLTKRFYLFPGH

SMILES | k3/ki
CC(C)[C@H](NC(=O)COc1cccc2ccccc12)C(=O)N[C@@H](CC(=O)O)C(=O)COc1nncc(Cl)c1Cl | 152 1/m/s
CC(C)[C@H](NC(=O)COc1cccc2ccccc12)C(=O)N[C@@H](CC(=O)O)C(=O)COc1cncc2ccccc12 | 0 1/m/s
CC(C)[C@H](NC(=O)COc1cccc2ccccc12)C(=O)N[C@@H](CC(=O)O)C(=O)CSc1nc(-c2ccccc2)c(-c2ccccc2)o1 | 200 1/m/s
CCOC(=O)c1c(C)noc1OCC(=O)[C@H](CC(=O)O)NC(=O)[C@@H](NC(=O)COc1cccc2ccccc12)C(C)C | 1440 1/m/s

Second part, the compound after the results:

k3/ki | SMILES
1200 1/m/s | CC(C)[C@H](NC(=O)COc1cccc2ccccc12)C(=O)N[C@@H](CC(=O)O)C(=O)CSc1nccn1C
280 1/m/s | CC(C)[C@H](NC(=O)COc1cccc2ccccc12)C(=O)N[C@@H](CC(=O)O)C(=O)CSc1nnc(-c2ccccc2)o1

The compounds below were run against T3, Caspase-3 (Homo sapiens) (UniProt P42574) (assay: Binding affinity against Caspase-3). Settings: not given.
T3 sequence (whole entry): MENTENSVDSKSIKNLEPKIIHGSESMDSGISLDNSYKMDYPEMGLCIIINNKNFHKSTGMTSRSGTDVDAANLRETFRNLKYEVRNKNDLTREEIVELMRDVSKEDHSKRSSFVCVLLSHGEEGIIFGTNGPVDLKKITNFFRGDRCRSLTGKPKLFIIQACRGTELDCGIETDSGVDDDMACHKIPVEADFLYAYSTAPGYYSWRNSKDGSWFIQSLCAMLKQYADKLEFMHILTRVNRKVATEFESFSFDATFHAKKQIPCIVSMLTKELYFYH

SMILES | k3/ki
CC(C)[C@H](NC(=O)COc1cccc2ccccc12)C(=O)N[C@@H](CC(=O)O)C(=O)COc1nncc(Cl)c1Cl | 1760 1/m/s
CC(C)[C@H](NC(=O)COc1cccc2ccccc12)C(=O)N[C@@H](CC(=O)O)C(=O)COc1cncc2ccccc12 | 0 1/m/s
CC(C)[C@H](NC(=O)COc1cccc2ccccc12)C(=O)N[C@@H](CC(=O)O)C(=O)CSc1nc(-c2ccccc2)c(-c2ccccc2)o1 | 2010 1/m/s
CCOC(=O)c1c(C)noc1OCC(=O)[C@H](CC(=O)O)NC(=O)[C@@H](NC(=O)COc1cccc2ccccc12)C(C)C | 5670 1/m/s

More lines, now with the values ahead:

k3/ki | SMILES
11500 1/m/s | CC(C)[C@H](NC(=O)COc1cccc2ccccc12)C(=O)N[C@@H](CC(=O)O)C(=O)CSc1nccn1C
4800 1/m/s | CC(C)[C@H](NC(=O)COc1cccc2ccccc12)C(=O)N[C@@H](CC(=O)O)C(=O)CSc1nnc(-c2ccccc2)o1

The compounds below were run against T1, Caspase-6 (Homo sapiens) (assay: Binding affinity against Caspase-6). Settings: not given.

SMILES | k3/ki
CC(C)[C@H](NC(=O)COc1cccc2ccccc12)C(=O)N[C@@H](CC(=O)O)C(=O)COc1nncc(Cl)c1Cl | 8 1/m/s
CC(C)[C@H](NC(=O)COc1cccc2ccccc12)C(=O)N[C@@H](CC(=O)O)C(=O)COc1cncc2ccccc12 | 0 1/m/s
CC(C)[C@H](NC(=O)COc1cccc2ccccc12)C(=O)N[C@@H](CC(=O)O)C(=O)CSc1nc(-c2ccccc2)c(-c2ccccc2)o1 | 0 1/m/s

Second part, the compound after the results:

k3/ki | SMILES
570 1/m/s | CC(C)[C@H](NC(=O)COc1cccc2ccccc12)C(=O)N[C@@H](CC(=O)O)C(=O)CSc1nccn1C
110 1/m/s | CC(C)[C@H](NC(=O)COc1cccc2ccccc12)C(=O)N[C@@H](CC(=O)O)C(=O)CSc1nnc(-c2ccccc2)o1
